Measured values taken from article PMC4692446, “Compound K Production from Red Ginseng Extract by β-Glycosidase from Sulfolobus solfataricus Supplemented with α-L-Arabinofuranosidase from Caldicellulosiruptor saccharolyticus” (PLoS ONE, 2015).

Molecular target: T1, SS-bgly (β-glycosidase from Sulfolobus solfataricus) (Saccharolobus solfataricus, UniProt P22498)
T1 construct: gene lacS; full-length gene from genomic DNA in pET-24a, NdeI/BamHI, own stop codon, no tag; E. coli ER2566; heat-treated soluble enzyme (75°C)
T1 sequence (P22498 1-489): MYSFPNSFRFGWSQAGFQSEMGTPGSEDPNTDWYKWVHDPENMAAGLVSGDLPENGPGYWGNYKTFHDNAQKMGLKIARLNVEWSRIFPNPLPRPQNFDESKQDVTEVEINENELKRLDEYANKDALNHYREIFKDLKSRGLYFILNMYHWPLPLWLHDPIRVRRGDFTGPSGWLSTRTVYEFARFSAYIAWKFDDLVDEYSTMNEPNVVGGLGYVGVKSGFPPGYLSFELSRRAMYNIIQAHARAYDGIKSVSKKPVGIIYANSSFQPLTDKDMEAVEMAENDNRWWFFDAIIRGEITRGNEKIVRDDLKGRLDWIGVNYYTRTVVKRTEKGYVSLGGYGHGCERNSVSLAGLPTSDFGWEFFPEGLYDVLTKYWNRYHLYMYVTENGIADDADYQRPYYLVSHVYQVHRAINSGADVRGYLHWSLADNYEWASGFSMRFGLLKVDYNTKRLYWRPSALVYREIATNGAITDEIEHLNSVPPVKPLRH
Assay: TLC of reaction products
Type: biochemical
Conditions: 80°C, pH 6.0 citrate/phosphate; SS-bgly alone; product C-Mc

CC(C)=CCC[C@](C)(O[C@@H]1O[C@H](CO[C@@H]2O[C@@H](CO)[C@H](O)[C@H]2O)[C@@H](O)[C@H](O)[C@H]1O)[C@H]1CC[C@]2(C)[C@@H]1[C@H](O)C[C@@H]1[C@@]3(C)CC[C@H](O[C@@H]4O[C@H](CO)[C@@H](O)[C@H](O)[C@H]4O[C@@H]4O[C@H](CO)[C@@H](O)[C@H](O)[C@H]4O)C(C)(C)[C@@H]3CC[C@]12C [Rc, ginsenoside Rc]
TLC of reaction products: whereas only C-Mc was obtained by SS-bgly alone
